# Measurements: patent US11311013B2, “Benzimidazole compound or salt thereof, agricultural and horticultural insecticidal and acaricidal agent containing said compound, and method for using same” (NIHON NOHYAKU CO., LTD., priority 2018, dated 2022)
# System: Diamondback moth (Plutella xylostella)
# Test: Insecticidal test on diamondback moth, dip of Chinese cabbage seedlings with laid eggs
# Format: in vivo
# Conditions: 144 h, dip about 30 seconds, 25° C., 6 days after dip treatment, hatched larvae counted, read-out: insecticidal efficacy (corrected mortality rate) activity level
# From the text: Insecticidal Test on Diamondback Moth (Plutella xylostella)
# Adults of diamondback moth were released onto Chinese cabbage seedlings and allowed to lay eggs thereon. At 2 days after the release of the adults, the Chinese cabbage seedlings with laid eggs were dipped for about 30 seconds in agrochemical dispersions diluted to 500 ppm, each of which contained a different benzimidazole compound represented by the general formula (1) of the present invention or salt thereof as an active ingredient. After air-dried, the seedlings were kept in a thermostatic chamber at 25° C. At 6 days after the dip treatment, the number of hatched larvae per plot was counted, the corrected mortality rate was calculated according to the formula shown below, and the insecticidal efficacy was evaluated according to the criteria of Test Example 2. This test was conducted in triplicate using 10 adults of diamondback moth per plot. Corrected mortality rate (%)=(Number of hatched larvae in a non-treatment plot−Number of hatched larvae in a treatment plot)/(Number of hatched larvae in a non-treatment plot)×100 [Expression 3]
row,Structure (SMILES),mortality at 500 ppm [%]
1,"CCS(=O)(=O)n1c(-c2ccc(OCC(F)(F)C(F)(F)F)nc2)nc2ccccc21 [Compound 1-2, 2-(2-(2,2,3,3,3-pentafluoropropyloxy)pyridin-5-yl)-1-ethanesulfonyl benzimidazole]",100

# System: Two-spotted spider mite (Tetranychus urticae)
# Test: Acaricidal action on two-spotted spider mite, kidney bean leaf disk spray
# Format: in vivo
# Conditions: 500 ppm, 25° C., two days after treatment
# Method: Acaricidal Action on Two-Spotted Spider Mite (Tetranychus urticae)
# Leaf disk having a diameter of 2 cm was prepared by leaves of kidney bean, and the leaf disk was placed on the wetted filter paper. Adult hens of two-spotted spider mite were inoculated on the wetted filter paper, and then 50 ml of an agrochemical dispersion, prepared by diluting a formulation containing the benzimidazole compound represented by the general formula (1) of the present invention or salt thereof as an active ingredient to adjust each of the concentrations to 500 ppm, was sprayed on turntable uniformly. After the spraying, it was allowed to stand in a thermostatic chamber at 25° C. Two days after the treatment of an agrochemical dispersion, the dead mites were counted, the corrected mortality rate was calculated according to the formula shown below, and the acaricidal efficacy was evaluated according to the criteria of Test Example 2. This test was conducted in duplicate using 10 adult hens of two-spotted spider per plot. Corrected mortality (%)=(Number of dead mites in a non-treatment plot−Number of dead mites in a treatment plot)/(Number of dead mites in a non-treatment plot)×100 [Expression 4]
row,Structure (SMILES),acaricidal efficacy (corrected mortality rate) activity level
1,CCS(=O)(=O)n1c(-c2ccc(OCC(F)(F)F)nc2)nc2ccccc21 [Compound 1-1],D or higher
2,"CCS(=O)(=O)n1c(-c2ccc(OCC(F)(F)C(F)(F)F)nc2)nc2ccccc21 [Compound 1-2, 2-(2-(2,2,3,3,3-pentafluoropropyloxy)pyridin-5-yl)-1-ethanesulfonyl benzimidazole]",D or higher
3,CS(=O)(=O)n1c(-c2ccc(OCC(F)(F)C(F)(F)F)nc2)nc2ccccc21 [Compound 1-3],D or higher
4,CCCS(=O)(=O)n1c(-c2ccc(OCC(F)(F)C(F)(F)F)nc2)nc2ccccc21 [Compound 1-4],D or higher
5,CCCCS(=O)(=O)n1c(-c2ccc(OCC(F)(F)C(F)(F)F)nc2)nc2ccccc21 [Compound 1-5],D or higher
6,CCS(=O)(=O)n1c(-c2ccc(OCC(F)(F)C(F)(F)F)nc2)nc2ccc(Br)cc21 [Compound 1-10],D or higher
7,CCS(=O)(=O)n1c(-c2ccc(OCC(F)(F)C(F)(F)F)nc2)nc2cc(Cl)ccc21 [Compound 1-12],D or higher
8,CCS(=O)(=O)n1c(-c2ccc(OCC(F)(F)C(F)(F)F)nc2)nc2ccc(Cl)cc21 [Compound 1-13],D or higher
9,CCS(=O)(=O)n1c(-c2ccc(OCC(F)(F)C(F)(F)F)nc2)nc2cc(Cl)c(Cl)cc21 [Compound 1-14],D or higher
10,CCS(=O)(=O)n1c(-c2ccc(OCC(F)(F)C(F)(F)F)nc2)nc2cc(Br)c(Br)cc21 [Compound 1-15],D or higher
11,CCS(=O)(=O)n1c(-c2ccc(OCC(F)(F)C(F)(F)F)nc2)nc2cc(C)c(C)cc21 [Compound 1-17],D or higher
12,CCS(=O)(=O)n1c(-c2cnc(OCC(F)(F)C(F)(F)F)c(Cl)c2)nc2ccccc21 [Compound 1-18],D or higher
13,CCS(=O)(=O)n1c(-c2ccc(OCC(F)(F)C(F)F)nc2)nc2ccccc21 [Compound 1-19],D or higher
14,CCS(=O)(=O)n1c(-c2ccc(OCC(F)(F)C(F)(F)C(F)(F)F)nc2)nc2ccccc21 [Compound 1-20],D or higher
15,CCS(=O)(=O)n1c(-c2ccc(OCC(F)(F)C(F)(F)C(F)(F)F)nc2)nc2ccc(Br)cc21 [Compound 1-22],D or higher
16,CCS(=O)(=O)n1c(-c2ccc(OC(C(F)(F)F)C(F)(F)F)nc2)nc2ccccc21 [Compound 1-23],D or higher
17,CCS(=O)(=O)n1c(-c2ccc(OCC(F)(F)C(F)C(F)(F)F)nc2)nc2ccccc21 (centres unmarked) [Compound 1-24],D or higher
18,CCS(=O)(=O)n1c(-c2ccc(Oc3ccc(SC(F)(F)F)cc3)nc2)nc2ccccc21 [Compound 1-40],D or higher
19,CCS(=O)(=O)n1c(-c2ccc(Oc3ccc([S+]([O-])C(F)(F)F)cc3)nc2)nc2ccccc21 (centres unmarked) [Compound 1-41],D or higher
20,CCS(=O)(=O)n1c(-c2ccc(Oc3ccc(S(=O)(=O)C(F)(F)F)cc3)nc2)nc2ccccc21 [Compound 1-42],D or higher
21,CCS(=O)(=O)n1c(-c2ccc(OCc3ccc(SC(F)(F)F)cc3)nc2)nc2ccccc21 [Compound 1-43],D or higher
22,CCS(=O)(=O)n1c(-c2ccc(OCc3ccc([S+]([O-])C(F)(F)F)cc3)nc2)nc2ccccc21 (centres unmarked) [Compound 1-44],D or higher
23,O=S(=O)(CCl)n1c(-c2ccc(OCC(F)(F)C(F)(F)F)nc2)nc2ccccc21 [Compound 1-45],D or higher
24,CCS(=O)(=O)n1c(-c2ccc(Oc3ccc(OC(F)(F)F)cc3)nc2)nc2ccccc21 [Compound 1-46],D or higher
25,CCCCOc1ccc(-c2nc3ccccc3n2S(=O)(=O)CC)cn1 [Compound 1-47],D or higher

row,Structure (SMILES),acaricidal efficacy (corrected mortality rate) activity level
1,CCCCCOc1ccc(-c2nc3ccccc3n2S(=O)(=O)CC)cn1 [Compound 1-48],D or higher
2,CCCCCCOc1ccc(-c2nc3ccccc3n2S(=O)(=O)CC)cn1 [Compound 1-49],D or higher
3,CCS(=O)(=O)n1c(-c2ccc(OC3CCCC3)nc2)nc2ccccc21 [Compound 1-50],D or higher
4,CCS(=O)(=O)n1c(-c2ccc(OC3CCCCCC3)nc2)nc2ccccc21 [Compound 1-51],D or higher
5,CCS(=O)(=O)n1c(-c2cncc(OCC(F)(F)C(F)(F)F)c2)nc2ccccc21 [Compound 3-1],D or higher
6,CCCOc1ccc(-c2nc3ccccc3n2S(=O)(=O)CC)cn1 [Compound 5-1],D or higher
7,CCS(=O)(=O)n1c(-c2ccc(OC(C)C)nc2)nc2ccccc21 [Compound 5-2],D or higher
8,CCS(=O)(=O)n1c(-c2ccc(OC3CCCCC3)nc2)nc2ccccc21 [Compound 5-3],D or higher
9,CCS(=O)(=O)n1c(-c2ccc(OCCC(C)(C)C)nc2)nc2ccccc21 [Compound 5-4],D or higher
10,CCS(=O)(=O)n1c(-c2ccc(OCCOC)nc2)nc2ccccc21 [Compound 5-5],D or higher
11,CCS(=O)(=O)n1c(-c2ccc(OCCSC)nc2)nc2ccccc21 [Compound 5-6],D or higher
12,CCS(=O)(=O)n1c(-c2ccc(Oc3ccc([Si](C)(C)C)cc3)nc2)nc2ccccc21 [Compound 5-8],D or higher
13,CCS(=O)(=O)n1c(-c2cnc(OCC(F)(F)F)c(Cl)c2)nc2ccccc21 [Compound 5-9],D or higher
14,CCS(=O)(=O)n1c(-c2cnc(OCC(F)(F)C(F)F)c(Cl)c2)nc2ccccc21 [Compound 5-10],D or higher
15,CCS(=O)(=O)n1c(-c2ccc(OCCC(F)(F)C(F)(F)C(F)(F)C(F)(F)C(F)(F)C(F)(F)F)nc2)nc2ccccc21 [Compound 5-11],D or higher
16,CCS(=O)(=O)n1c(-c2ccc(OCC(F)(F)C(F)(F)C(F)(F)C(F)(F)C(F)(F)C(F)F)nc2)nc2ccccc21 [Compound 5-12],D or higher
17,CCCSc1ccc(-c2nc3ccccc3n2S(=O)(=O)CC)cn1 [Compound 5-14],D or higher
18,CCCCSc1ccc(-c2nc3ccccc3n2S(=O)(=O)CC)cn1 [Compound 5-17],D or higher
19,CCS(=O)(=O)n1c(-c2ccc(SC3CCCC3)nc2)nc2ccccc21 [Compound 5-18],D or higher
20,CCS(=O)(=O)n1c(-c2ccc(SC3CCCCC3)nc2)nc2ccccc21 [Compound 5-19],D or higher
21,CCS(=O)(=O)n1c(-c2ccc(SCC3CC3)nc2)nc2ccccc21 [Compound 5-20],D or higher
22,CCS(=O)(=O)n1c(-c2ccc(SCc3ccccc3)nc2)nc2ccccc21 [Compound 5-21],D or higher
23,CCCCN(CCCC)c1ccc(-c2nc3ccccc3n2S(=O)(=O)CC)cn1 [Compound 5-24],D or higher
24,CCCCN(C)c1ccc(-c2nc3ccccc3n2S(=O)(=O)CC)cn1 [Compound 5-25],D or higher
